According to ChEMBL document CHEMBL4483862, “Open-source discovery of chemical leads for next-generation chemoprotective antimalarials” (2018):

Tested on: Plasmodium berghei
Experiment: Luciferase/luciferin-expressing antifolate-resistant parasites were used to infect a culture of HepG2 cells that were pre-incubated with compounds. Infected hepatocytes emit light due to the luciferase reaction. Assay results are presented as the percent inhibition of light emission compared to control. […]
Assay type: functional
Details: sporozoite; for IC90: read-out: LUCIFERASE INFECTION ASSAY - IC90
[1] = read-out: LUCIFERASE INFECTION ASSAY - IC50

| SMILES | IC90 [µM] | further results |
| --- | --- | --- |
| CCOC(=O)c1[nH]c(C)c(C(=O)/C=C/c2c(C)nn3c(C(F)(F)F)ccnc23)c1C | 0.365 | IC50 (HEPG2TOX_HILL_SLOPE 1.29, HEPG2TOX_R_SQUARED 0.824, PBLUC_HILL_SLOPE 0.936, PBLUC_R_SQUARED 0.825, read-out: LUCIFERASE INFECTION ASSAY - IC50): 0.0349 µM |
| CN1/C(=C\C=N\c2cc(Cl)c([N+](=O)[O-])cc2O)C(C)(C)c2ccccc21 | > 10 | IC50 (HEPG2TOX_HILL_SLOPE 12.2, 11.0, HEPG2TOX_R_SQUARED 0.457, 0.953, PBLUC_HILL_SLOPE 3.42, PBLUC_R_SQUARED 0.319, read-out: LUCIFERASE INFECTION ASSAY - IC50): 5.58 µM |
| O=C(NC(=O)c1cc(Br)cc(Br)c1)Nc1cc(C(F)(F)F)cc(C(F)(F)F)c1 | 5.3 | IC50 (HEPG2TOX_HILL_SLOPE 7.89, HEPG2TOX_R_SQUARED 0.4, PBLUC_HILL_SLOPE 3.95, PBLUC_R_SQUARED 0.259, read-out: LUCIFERASE INFECTION ASSAY - IC50): 3.04 µM |
| O=C1C=CC(=O)N1Cc1ccc2c(c1)OCO2 | 13.4 | IC50 (PBLUC_HILL_SLOPE 13.6, PBLUC_R_SQUARED 0.619, read-out: LUCIFERASE INFECTION ASSAY - IC50): 11.4 µM |
| CCOC(=O)c1cnc(SC(C)C(=O)Nc2nc(-c3ccccc3)cs2)nc1N (centres undefined) | > 10 | IC50 (HEPG2TOX_HILL_SLOPE 0.514, HEPG2TOX_R_SQUARED 0.73, PBLUC_HILL_SLOPE 0.707, PBLUC_R_SQUARED 0.324, read-out: LUCIFERASE INFECTION ASSAY - IC50): 4.44 µM |
| Cc1nnnn1/C(=C\c1cccc(F)c1)C(=O)NC(C)c1cc2ccccc2o1 (centres undefined) | 4.08 | IC50 (HEPG2TOX_HILL_SLOPE 3.7, HEPG2TOX_R_SQUARED 0.887, PBLUC_HILL_SLOPE 12.4, PBLUC_R_SQUARED 0.779, read-out: LUCIFERASE INFECTION ASSAY - IC50): 3.42 µM |
| COc1cc(NS(=O)(=O)c2ccc(C)cc2)c(OC)cc1Cl | 3.66 | IC50 [1]: 2.01 µM |
| COc1cc(/C=N/NC(=O)c2cc3c(s2)CCC(C)C3)ccc1OC(=O)c1ccco1 (centres undefined) | > 10 | IC50 [1]: > 10 µM |
| Cc1ccc(-c2cc(=O)n(-c3ccc(F)cc3)[nH]2)cc1 | 11.6 | IC50 (HEPG2TOX_HILL_SLOPE 8.74, HEPG2TOX_R_SQUARED 0.98, PBLUC_HILL_SLOPE 2.08, PBLUC_R_SQUARED 0.732, read-out: LUCIFERASE INFECTION ASSAY - IC50): 4.04 µM |
| CN1CCN(S(=O)(=O)c2ccc(N3CCC(c4nc5ccccc5s4)CC3)nc2)CC1 | > 10 | IC50 (PBLUC_HILL_SLOPE 13.7, PBLUC_R_SQUARED 0.493, read-out: LUCIFERASE INFECTION ASSAY - IC50): 9.47 µM |
| CC(=O)Oc1cc2sc(=O)oc2c2ccccc12 | > 12.7 | IC50 [1]: > 12.7 µM |
| O=C(CCc1ccc(-c2ccccc2)o1)Nc1nc(CN2CCCCC2)cs1 | > 10 | IC50 [1]: > 10 µM |
| Cc1ccc(C(C)CCN2CCc3c(c(C(=O)NCc4nccs4)nn3Cc3ccccc3)C2)o1 (centres undefined) | > 6.74 | IC50 [1]: > 6.74 µM |
| COCCNC(=O)C1CCN(C(C(=O)c2c[nH]c3ccccc23)c2ccccc2)CC1 (centres undefined) | 4.42 | IC50 (PBLUC_HILL_SLOPE 1.13, PBLUC_R_SQUARED 0.77, read-out: LUCIFERASE INFECTION ASSAY - IC50): 0.636 µM |
| COC(=O)c1cnc(NC(=O)/C=C/c2ccc([N+](=O)[O-])o2)s1 | > 10 | IC50 (HEPG2TOX_HILL_SLOPE 3.5, HEPG2TOX_R_SQUARED 0.48, read-out: LUCIFERASE INFECTION ASSAY - IC50): > 10 µM |
| N#Cc1cc(-c2ccccc2)nnc1NCc1ccc(Cl)cc1 | > 10.3 | IC50 (HEPG2TOX_HILL_SLOPE 2, HEPG2TOX_R_SQUARED 0.904, PBLUC_HILL_SLOPE 2.36, PBLUC_R_SQUARED 0.485, read-out: LUCIFERASE INFECTION ASSAY - IC50): 6.28 µM |
| CC(C)Cc1ccc(CN2CCC3(CC2)C(=O)N(CC(C)C)C(=O)N3C)cc1 | > 8.56 | IC50 (HEPG2TOX_HILL_SLOPE 2.88, HEPG2TOX_R_SQUARED 0.972, PBLUC_HILL_SLOPE 3.02, PBLUC_R_SQUARED 0.492, read-out: LUCIFERASE INFECTION ASSAY - IC50): 5.03 µM |
| CCOC(=O)c1cc(C#N)c(Sc2n[nH]c(=O)n2Cc2ccc(C(F)(F)F)cc2)nc1C | > 7.12 | IC50 (FFLUC_HILL_SLOPE 26.6, FFLUC_R_SQUARED 0.376, read-out: LUCIFERASE INFECTION ASSAY - IC50): > 7.12 µM |
| Cc1ccc2[nH]c3c(c2c1)CCCC3NCCCN(C)C (centres undefined) | > 11.5 | IC50 (HEPG2TOX_HILL_SLOPE 41.7, HEPG2TOX_R_SQUARED 0.689, PBLUC_HILL_SLOPE 2.08, PBLUC_R_SQUARED 0.555, read-out: LUCIFERASE INFECTION ASSAY - IC50): 4.94 µM |
| Cc1c(C)n(CCN(C)C)c2ncn3nc(-c4ccccc4O)nc3c12 | > 9.42 | IC50 (PBLUC_HILL_SLOPE 1.46, PBLUC_R_SQUARED 0.808, read-out: LUCIFERASE INFECTION ASSAY - IC50): 2.21 µM |
| Cc1nc(NCc2ccc(-n3ccnc3)nc2)c2c(-c3ccccc3)csc2n1 | 4.03 | IC50 (HEPG2TOX_HILL_SLOPE 1.9, HEPG2TOX_R_SQUARED 0.893, PBLUC_HILL_SLOPE 8.93, PBLUC_R_SQUARED 0.705, read-out: LUCIFERASE INFECTION ASSAY - IC50): 3.15 µM |

| SMILES | IC90 [µM] | further results |
| --- | --- | --- |
| CCOc1ccc(C(C)NC(=O)c2nc(SC)ncc2Cl)cc1 (centres undefined) | 4.29 | IC50 (HEPG2TOX_HILL_SLOPE 16.5, HEPG2TOX_R_SQUARED 0.52, PBLUC_HILL_SLOPE 11.3, PBLUC_R_SQUARED 0.138, read-out: LUCIFERASE INFECTION ASSAY - IC50): 3.53 µM |
| COc1cc(-c2[nH]nc3ccnc(-c4cccc(OC(F)(F)F)c4)c23)cc(OC)c1OC | > 10 | IC50 [1]: > 10 µM |
| OC(c1ccc(F)c(Cl)c1)c1nnc(Nc2cc(C(F)(F)F)ccc2F)s1 (centres undefined) | > 10 | IC50 (PBLUC_HILL_SLOPE 15.9, PBLUC_R_SQUARED 0.206, read-out: LUCIFERASE INFECTION ASSAY - IC50): 9.29 µM |
| C=CCn1c(C)cc(C(=O)CSc2nc3ccccc3[nH]2)c1C | 0.467 | IC50 (PBLUC_HILL_SLOPE 12.6, PBLUC_R_SQUARED 0.563, read-out: LUCIFERASE INFECTION ASSAY - IC50): 0.393 µM |
| Cc1[nH]c2ccc(C(=O)Nc3ccc(-n4cnnn4)cc3)cc2c1C | > 10 | IC50 [1]: > 10 µM |
| Cc1ccc(S(=O)(=O)N/N=C/c2c(C)nn(-c3ccccc3)c2C)cc1[N+](=O)[O-] | > 10 | IC50 [1]: > 10 µM |
| C=c1c(Nc2cccc(C(F)(F)F)c2)cc(Nc2cccc(C(F)(F)F)c2)c(O)c1=C | > 10 | IC50 (PBLUC_HILL_SLOPE 2.41, PBLUC_R_SQUARED 0.317, read-out: LUCIFERASE INFECTION ASSAY - IC50): 7.29 µM |
| CC(=O)NC(Cc1c[nH]c2ccccc12)C(=O)NNC(=O)c1ccccc1O (centres undefined) | > 10 | IC50 [1]: > 10 µM |
| CC(C)Cn1c(-c2cc([N+](=O)[O-])ccc2Cl)nc2c1c(=O)[nH]c(=O)n2Cc1ccccc1 | > 10 | IC50 [1]: > 10 µM |
| Cc1ccc(-n2nnnc2COc2cc(C)ccc2C(C)C)c(C)c1 | > 9.81 | IC50 (PBLUC_HILL_SLOPE 3.14, PBLUC_R_SQUARED 0.65, read-out: LUCIFERASE INFECTION ASSAY - IC50): 6.61 µM |
| O=C(NC1CCN(C(=O)c2ccoc2)CC1)c1cccc2c3c([nH]c12)CCCCC3 | > 10 | IC50 (PBLUC_HILL_SLOPE 15.4, PBLUC_R_SQUARED 0.491, read-out: LUCIFERASE INFECTION ASSAY - IC50): 9.35 µM |
| CC(Sc1nnc(-c2cccs2)n1C(C)C1CC2CCC1C2)C(=O)N1CCCc2ccccc21 (centres undefined) | > 10 | IC50 (FFLUC_HILL_SLOPE 9.01, FFLUC_R_SQUARED 0.23, read-out: LUCIFERASE INFECTION ASSAY - IC50): > 10 µM |
| CC1=C(C(=O)OC2CCCCC2)C(c2ccccc2Br)CC(=O)N1 (centres undefined) | > 8.41 | IC50 (PBLUC_HILL_SLOPE 15.2, PBLUC_R_SQUARED 0.697, read-out: LUCIFERASE INFECTION ASSAY - IC50): 7.66 µM |
| CS(=O)(=O)NCCc1ccc(C(=O)Nc2ccc(Cl)c(C(F)(F)F)c2)s1 | > 10 | IC50 (HEPG2TOX_HILL_SLOPE 16.3, HEPG2TOX_R_SQUARED 0.947, PBLUC_HILL_SLOPE 9.17, PBLUC_R_SQUARED 0.224, read-out: LUCIFERASE INFECTION ASSAY - IC50): 8.32 µM |
| O=C(NNC(=O)c1cccs1)c1cncc(C#Cc2ccccc2)c1 | > 9.5 | IC50 [1]: > 9.5 µM |
| COc1ccccc1-c1cnn2ccc(Nc3ccccc3)nc12 | 2.14 | IC50 (HEPG2TOX_HILL_SLOPE 8.7, HEPG2TOX_R_SQUARED 0.948, PBLUC_HILL_SLOPE 3.38, PBLUC_R_SQUARED 0.62, read-out: LUCIFERASE INFECTION ASSAY - IC50): 1.12 µM |
| CCOC(=O)c1ccsc1NC(=O)CNc1ccc(Br)cc1 | > 10 | IC50 (HEPG2TOX_HILL_SLOPE 11.3, HEPG2TOX_R_SQUARED 0.575, read-out: LUCIFERASE INFECTION ASSAY - IC50): > 10 µM |
| CC(C)(C)c1csc(NC(=O)C2CCCN2S(=O)(=O)c2ccc(Br)s2)n1 (centres undefined) | > 10 | IC50 (PBLUC_HILL_SLOPE 9.23, PBLUC_R_SQUARED 0.508, read-out: LUCIFERASE INFECTION ASSAY - IC50): 9.84 µM |
| Cc1c(C)n(CCCN(C)C)c2ncn3nc(COc4ccccc4)nc3c12 | > 8.72 | IC50 (PBLUC_HILL_SLOPE 0.81, PBLUC_R_SQUARED 0.755, read-out: LUCIFERASE INFECTION ASSAY - IC50): 0.821 µM |
| CC1=C(C(=O)OCc2ccccc2)C(c2ccc(Cl)c([N+](=O)[O-])c2)n2nnnc2N1 (centres undefined) | > 10 | IC50 (HEPG2TOX_HILL_SLOPE 0.964, HEPG2TOX_R_SQUARED 0.562, read-out: LUCIFERASE INFECTION ASSAY - IC50): > 10 µM |
| OCCCNc1nn2c(-c3ccccc3Cl)cnc2s1 | > 10.7 | IC50 [1]: > 10.7 µM |
